Source: ChEMBL document CHEMBL1150977, “A quantitative analysis of kinase inhibitor selectivity” (Nat Biotechnol, 2008)

Tests used:
Activin receptor type-2A = Activin receptor type-2A (Homo sapiens, UniProt P27037)
Wee1-like protein kinase = Wee1-like protein kinase (Homo sapiens, UniProt P30291)
Ephrin type-A receptor 6 = target: T1, Ephrin type-A receptor 6 (Homo sapiens, UniProt Q9UF33)
T1 sequence (Q9UF33 whole entry): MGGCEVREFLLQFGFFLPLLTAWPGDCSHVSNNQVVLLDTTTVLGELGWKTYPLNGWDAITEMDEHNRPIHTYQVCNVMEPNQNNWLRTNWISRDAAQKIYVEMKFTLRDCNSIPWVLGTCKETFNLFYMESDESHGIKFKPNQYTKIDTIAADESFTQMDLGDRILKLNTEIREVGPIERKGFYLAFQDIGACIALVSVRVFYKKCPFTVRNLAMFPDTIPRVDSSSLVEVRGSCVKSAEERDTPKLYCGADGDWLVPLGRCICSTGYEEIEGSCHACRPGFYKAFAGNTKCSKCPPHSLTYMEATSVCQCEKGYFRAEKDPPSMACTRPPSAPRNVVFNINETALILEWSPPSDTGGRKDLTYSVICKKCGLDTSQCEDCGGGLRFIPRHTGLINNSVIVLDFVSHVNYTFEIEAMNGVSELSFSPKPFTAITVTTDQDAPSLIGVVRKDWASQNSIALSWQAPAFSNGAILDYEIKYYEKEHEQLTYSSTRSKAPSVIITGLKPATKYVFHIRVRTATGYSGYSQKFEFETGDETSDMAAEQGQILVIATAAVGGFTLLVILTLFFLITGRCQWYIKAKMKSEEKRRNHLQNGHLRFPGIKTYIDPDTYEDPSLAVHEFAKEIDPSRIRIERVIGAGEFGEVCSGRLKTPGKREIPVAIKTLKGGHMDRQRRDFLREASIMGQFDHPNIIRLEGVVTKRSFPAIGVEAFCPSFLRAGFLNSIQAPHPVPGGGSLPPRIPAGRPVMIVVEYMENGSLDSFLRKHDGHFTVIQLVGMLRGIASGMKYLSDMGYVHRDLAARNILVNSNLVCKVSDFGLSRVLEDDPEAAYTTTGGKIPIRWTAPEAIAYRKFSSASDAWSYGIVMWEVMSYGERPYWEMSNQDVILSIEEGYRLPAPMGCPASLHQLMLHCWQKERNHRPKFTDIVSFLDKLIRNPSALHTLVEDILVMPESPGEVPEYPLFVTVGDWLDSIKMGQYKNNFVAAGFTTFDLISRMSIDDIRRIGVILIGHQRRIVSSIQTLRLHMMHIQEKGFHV

[1] = target: Calcium/calmodulin-dependent protein kinase type II subunit beta (Homo sapiens, UniProt Q13554)
[2] = target: Serine/threonine-protein kinase 24 (Homo sapiens, UniProt Q9Y6E0)
Ephrin type-B receptor 1 = target: T2, Ephrin type-B receptor 1 (Homo sapiens, UniProt P54762)
T2 sequence (P54762 whole entry): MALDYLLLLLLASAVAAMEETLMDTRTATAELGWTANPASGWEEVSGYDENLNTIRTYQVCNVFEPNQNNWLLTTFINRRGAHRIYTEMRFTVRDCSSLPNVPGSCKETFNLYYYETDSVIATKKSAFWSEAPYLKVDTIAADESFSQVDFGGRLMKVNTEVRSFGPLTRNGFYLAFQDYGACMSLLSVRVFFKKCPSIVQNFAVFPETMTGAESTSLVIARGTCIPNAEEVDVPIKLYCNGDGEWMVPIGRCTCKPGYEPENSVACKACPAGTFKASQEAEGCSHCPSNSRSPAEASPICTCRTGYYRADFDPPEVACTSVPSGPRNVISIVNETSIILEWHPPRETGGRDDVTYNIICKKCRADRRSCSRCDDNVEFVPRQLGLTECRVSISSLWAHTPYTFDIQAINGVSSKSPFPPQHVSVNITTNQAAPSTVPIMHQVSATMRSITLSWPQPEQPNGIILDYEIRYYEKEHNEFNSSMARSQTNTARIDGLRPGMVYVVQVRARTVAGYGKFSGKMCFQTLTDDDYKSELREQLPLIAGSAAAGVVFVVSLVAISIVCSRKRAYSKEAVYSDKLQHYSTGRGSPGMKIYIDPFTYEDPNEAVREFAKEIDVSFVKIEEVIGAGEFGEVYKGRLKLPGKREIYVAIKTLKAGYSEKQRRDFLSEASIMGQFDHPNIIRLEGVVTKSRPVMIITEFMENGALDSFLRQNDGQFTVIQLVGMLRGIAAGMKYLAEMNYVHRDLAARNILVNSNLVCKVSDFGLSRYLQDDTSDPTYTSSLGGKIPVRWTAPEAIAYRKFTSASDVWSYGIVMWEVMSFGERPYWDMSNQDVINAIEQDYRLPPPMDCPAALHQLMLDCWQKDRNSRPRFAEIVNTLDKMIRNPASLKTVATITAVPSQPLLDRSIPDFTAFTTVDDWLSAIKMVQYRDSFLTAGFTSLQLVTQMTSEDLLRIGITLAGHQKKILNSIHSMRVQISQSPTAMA

[3] = target: Proto-oncogene tyrosine-protein kinase ROS (Homo sapiens, UniProt P08922)
[4] = target: T3, Serine/threonine-protein kinase DCLK1 (Homo sapiens, UniProt O15075)
T3 sequence (O15075 whole entry): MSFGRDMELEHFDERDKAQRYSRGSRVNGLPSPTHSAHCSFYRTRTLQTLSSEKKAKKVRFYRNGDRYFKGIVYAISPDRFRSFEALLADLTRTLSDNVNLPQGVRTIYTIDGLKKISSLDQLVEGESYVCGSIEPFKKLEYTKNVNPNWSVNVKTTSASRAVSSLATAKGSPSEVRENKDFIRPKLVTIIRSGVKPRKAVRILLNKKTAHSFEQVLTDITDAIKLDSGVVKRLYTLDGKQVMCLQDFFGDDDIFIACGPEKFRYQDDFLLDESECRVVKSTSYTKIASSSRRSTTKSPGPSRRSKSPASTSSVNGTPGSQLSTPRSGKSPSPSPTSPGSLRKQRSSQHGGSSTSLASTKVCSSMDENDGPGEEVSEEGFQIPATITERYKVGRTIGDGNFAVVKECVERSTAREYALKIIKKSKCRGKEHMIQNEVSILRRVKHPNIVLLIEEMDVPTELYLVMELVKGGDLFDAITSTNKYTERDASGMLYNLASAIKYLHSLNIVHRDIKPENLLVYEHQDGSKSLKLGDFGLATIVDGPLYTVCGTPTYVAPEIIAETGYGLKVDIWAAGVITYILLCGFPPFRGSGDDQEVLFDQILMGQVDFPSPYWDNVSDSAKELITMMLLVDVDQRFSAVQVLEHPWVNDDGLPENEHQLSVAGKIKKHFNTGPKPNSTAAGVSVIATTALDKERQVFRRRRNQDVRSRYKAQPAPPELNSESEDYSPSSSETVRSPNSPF

Wee1-like protein kinase, sequence (P30291 whole entry): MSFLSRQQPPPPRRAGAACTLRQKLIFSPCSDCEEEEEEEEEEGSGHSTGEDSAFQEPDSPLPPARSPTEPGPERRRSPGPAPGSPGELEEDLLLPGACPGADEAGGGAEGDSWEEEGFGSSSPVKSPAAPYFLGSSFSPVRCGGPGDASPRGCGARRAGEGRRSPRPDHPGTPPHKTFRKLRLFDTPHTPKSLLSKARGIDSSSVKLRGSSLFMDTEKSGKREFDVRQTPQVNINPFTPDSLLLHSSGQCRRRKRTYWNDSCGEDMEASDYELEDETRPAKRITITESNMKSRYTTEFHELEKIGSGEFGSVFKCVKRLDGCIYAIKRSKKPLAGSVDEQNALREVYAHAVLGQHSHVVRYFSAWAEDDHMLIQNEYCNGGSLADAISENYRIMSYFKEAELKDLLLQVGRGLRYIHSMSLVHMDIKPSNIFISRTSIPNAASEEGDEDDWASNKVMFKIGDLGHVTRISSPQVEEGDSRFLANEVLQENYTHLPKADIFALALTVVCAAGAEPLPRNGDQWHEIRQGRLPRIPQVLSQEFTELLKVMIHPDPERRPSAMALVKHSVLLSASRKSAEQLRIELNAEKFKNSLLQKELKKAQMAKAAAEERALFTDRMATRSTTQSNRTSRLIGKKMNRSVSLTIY
Serine/threonine-protein kinase 24, sequence (Q9Y6E0 whole entry): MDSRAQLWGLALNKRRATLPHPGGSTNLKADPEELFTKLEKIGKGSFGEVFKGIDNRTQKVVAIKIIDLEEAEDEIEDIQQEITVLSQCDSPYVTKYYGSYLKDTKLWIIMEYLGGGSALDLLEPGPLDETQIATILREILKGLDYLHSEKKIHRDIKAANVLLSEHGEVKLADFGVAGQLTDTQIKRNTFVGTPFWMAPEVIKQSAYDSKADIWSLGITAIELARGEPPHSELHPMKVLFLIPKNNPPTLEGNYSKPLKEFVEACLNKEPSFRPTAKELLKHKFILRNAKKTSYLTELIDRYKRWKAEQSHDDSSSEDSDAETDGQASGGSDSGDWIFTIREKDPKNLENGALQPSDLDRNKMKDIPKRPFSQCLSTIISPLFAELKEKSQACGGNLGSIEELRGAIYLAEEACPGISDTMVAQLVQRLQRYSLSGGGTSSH
Calcium/calmodulin-dependent protein kinase type II subunit beta, sequence (Q13554 whole entry): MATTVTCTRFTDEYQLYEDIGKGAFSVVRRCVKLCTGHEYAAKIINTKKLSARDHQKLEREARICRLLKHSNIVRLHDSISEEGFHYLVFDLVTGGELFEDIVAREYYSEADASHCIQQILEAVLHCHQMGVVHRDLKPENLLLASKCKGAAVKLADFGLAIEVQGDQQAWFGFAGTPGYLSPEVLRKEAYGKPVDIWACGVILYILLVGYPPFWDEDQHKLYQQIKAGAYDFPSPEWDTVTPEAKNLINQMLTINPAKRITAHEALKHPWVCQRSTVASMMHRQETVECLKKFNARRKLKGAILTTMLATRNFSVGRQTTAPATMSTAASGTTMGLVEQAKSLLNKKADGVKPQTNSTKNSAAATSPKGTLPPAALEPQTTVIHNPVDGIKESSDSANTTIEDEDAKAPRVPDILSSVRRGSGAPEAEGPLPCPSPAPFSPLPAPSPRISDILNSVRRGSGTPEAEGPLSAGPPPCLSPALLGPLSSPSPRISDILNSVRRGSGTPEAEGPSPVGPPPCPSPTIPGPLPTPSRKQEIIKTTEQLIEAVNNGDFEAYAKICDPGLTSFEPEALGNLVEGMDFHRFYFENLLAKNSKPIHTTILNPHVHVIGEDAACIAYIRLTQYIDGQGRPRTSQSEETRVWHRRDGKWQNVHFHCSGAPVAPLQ
Activin receptor type-2A, sequence (P27037 whole entry): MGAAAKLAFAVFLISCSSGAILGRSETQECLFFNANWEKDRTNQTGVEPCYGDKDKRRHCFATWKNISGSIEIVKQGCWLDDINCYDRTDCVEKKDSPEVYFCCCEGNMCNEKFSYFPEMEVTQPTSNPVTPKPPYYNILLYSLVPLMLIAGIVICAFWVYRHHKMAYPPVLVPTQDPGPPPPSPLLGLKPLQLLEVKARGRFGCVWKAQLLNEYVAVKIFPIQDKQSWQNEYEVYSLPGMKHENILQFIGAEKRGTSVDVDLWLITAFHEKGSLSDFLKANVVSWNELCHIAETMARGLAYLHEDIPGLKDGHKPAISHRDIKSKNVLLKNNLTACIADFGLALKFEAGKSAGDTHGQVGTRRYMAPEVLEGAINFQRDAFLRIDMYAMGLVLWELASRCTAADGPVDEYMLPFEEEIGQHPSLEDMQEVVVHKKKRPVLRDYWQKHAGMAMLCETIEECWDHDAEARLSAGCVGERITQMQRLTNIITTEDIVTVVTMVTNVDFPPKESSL
Proto-oncogene tyrosine-protein kinase ROS, sequence (P08922 whole entry): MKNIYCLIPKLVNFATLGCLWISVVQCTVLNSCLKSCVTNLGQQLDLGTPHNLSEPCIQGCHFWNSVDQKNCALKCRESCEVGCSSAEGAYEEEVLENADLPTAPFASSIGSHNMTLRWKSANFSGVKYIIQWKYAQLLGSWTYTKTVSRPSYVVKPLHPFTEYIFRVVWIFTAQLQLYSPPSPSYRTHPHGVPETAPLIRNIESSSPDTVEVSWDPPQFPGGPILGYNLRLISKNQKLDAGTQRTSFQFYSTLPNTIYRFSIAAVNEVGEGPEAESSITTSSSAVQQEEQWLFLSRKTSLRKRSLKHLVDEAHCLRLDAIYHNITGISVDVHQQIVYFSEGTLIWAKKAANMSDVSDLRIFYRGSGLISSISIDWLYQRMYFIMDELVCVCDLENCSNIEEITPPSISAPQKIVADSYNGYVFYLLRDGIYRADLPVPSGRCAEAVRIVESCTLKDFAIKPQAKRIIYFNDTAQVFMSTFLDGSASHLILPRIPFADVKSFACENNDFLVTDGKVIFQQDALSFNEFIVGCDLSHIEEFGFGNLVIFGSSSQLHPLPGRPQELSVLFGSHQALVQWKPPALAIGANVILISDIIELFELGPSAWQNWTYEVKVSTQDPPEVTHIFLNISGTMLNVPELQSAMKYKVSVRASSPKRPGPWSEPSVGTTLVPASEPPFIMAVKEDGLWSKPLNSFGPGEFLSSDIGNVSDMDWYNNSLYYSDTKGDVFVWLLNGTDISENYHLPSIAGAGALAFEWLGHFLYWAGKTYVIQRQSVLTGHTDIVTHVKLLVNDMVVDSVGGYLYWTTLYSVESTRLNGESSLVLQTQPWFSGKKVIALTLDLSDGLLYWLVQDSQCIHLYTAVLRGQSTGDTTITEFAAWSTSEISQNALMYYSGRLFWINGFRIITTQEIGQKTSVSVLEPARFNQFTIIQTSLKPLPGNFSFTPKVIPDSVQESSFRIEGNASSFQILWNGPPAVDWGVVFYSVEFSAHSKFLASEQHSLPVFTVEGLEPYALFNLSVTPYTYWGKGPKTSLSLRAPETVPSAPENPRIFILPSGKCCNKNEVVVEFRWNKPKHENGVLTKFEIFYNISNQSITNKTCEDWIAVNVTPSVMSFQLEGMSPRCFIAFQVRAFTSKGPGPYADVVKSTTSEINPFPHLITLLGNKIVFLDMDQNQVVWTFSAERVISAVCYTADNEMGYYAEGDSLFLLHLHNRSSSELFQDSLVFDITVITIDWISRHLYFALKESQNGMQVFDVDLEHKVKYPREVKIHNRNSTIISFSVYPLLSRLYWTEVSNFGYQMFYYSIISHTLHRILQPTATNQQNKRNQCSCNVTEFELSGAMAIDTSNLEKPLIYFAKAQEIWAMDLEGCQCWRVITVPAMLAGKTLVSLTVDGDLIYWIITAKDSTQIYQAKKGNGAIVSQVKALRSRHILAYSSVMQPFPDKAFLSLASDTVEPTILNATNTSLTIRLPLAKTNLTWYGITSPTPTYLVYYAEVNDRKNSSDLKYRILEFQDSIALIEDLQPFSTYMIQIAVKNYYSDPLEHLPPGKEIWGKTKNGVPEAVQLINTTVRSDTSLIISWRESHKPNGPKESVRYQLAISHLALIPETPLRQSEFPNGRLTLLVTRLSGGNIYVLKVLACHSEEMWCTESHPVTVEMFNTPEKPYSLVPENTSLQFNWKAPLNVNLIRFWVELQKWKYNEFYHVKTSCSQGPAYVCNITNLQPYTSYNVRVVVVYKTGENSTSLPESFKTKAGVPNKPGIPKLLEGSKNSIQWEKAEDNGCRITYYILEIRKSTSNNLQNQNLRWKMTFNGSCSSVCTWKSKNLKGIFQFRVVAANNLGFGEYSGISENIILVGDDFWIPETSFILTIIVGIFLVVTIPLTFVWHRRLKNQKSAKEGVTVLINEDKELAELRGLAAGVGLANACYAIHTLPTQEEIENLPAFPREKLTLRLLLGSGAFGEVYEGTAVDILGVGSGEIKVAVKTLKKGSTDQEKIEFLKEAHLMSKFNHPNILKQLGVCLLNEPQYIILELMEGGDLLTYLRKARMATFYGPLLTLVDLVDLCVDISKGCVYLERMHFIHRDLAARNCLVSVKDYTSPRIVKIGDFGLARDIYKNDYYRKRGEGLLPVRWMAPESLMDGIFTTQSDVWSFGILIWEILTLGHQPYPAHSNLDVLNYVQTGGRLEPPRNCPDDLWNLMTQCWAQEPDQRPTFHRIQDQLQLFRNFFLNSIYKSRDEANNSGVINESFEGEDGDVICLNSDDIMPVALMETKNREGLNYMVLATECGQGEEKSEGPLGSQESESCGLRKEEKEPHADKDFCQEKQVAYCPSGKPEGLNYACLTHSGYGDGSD

SMILES | Kd (Activin receptor type-2A) | Kd (Wee1-like protein kinase) | Kd (Ephrin type-A receptor 6) | Kd [1] | Kd [2] | Kd (Ephrin type-B receptor 1) | Kd [3] | Kd [4]
COCC(=O)NC/C=C/c1ccc2ncnc(Nc3ccc(Oc4ccc(C)nc4)c(C)c3)c2c1 [CP-724714] | > 10 µM | > 10 µM | > 10 µM | > 10 µM | > 10 µM | > 10 µM | > 10 µM | > 10 µM
CCOc1cc2ncc(C#N)c(Nc3ccc(F)c(Cl)c3)c2cc1NC(=O)/C=C/CN(C)C [PELITINIB] | > 10 µM | – | – | > 10 µM | 2.1 µM | – | > 10 µM | > 10 µM
NC(=O)c1ccc(-c2nc(-c3ccc4c(c3)OCO4)c(-c3ccccn3)[nH]2)cc1 [SB-431542] | > 10 µM | > 10 µM | > 10 µM | > 10 µM | > 10 µM | > 10 µM | > 10 µM | > 10 µM
CCN1CCN(Cc2ccc(NC(=O)Nc3ccc(Oc4cc(NC)ncn4)cc3)cc2C(F)(F)F)CC1 [AST-487] | – | – | – | – | > 10 µM | – | – | –
Nc1nc(Nc2ccc(S(N)(=O)=O)cc2)nn1C(=O)c1c(F)cccc1F [JNJ-7706621] | – | > 10 µM | > 10 µM | > 10 µM | – | > 10 µM | > 10 µM | –
Oc1ccc(-c2nc(-c3ccncc3)c(-c3ccc(F)cc3)[nH]2)cc1 [SB-202190] | > 10 µM | > 10 µM | 2.2 µM | > 10 µM | > 10 µM | > 10 µM | > 10 µM | > 10 µM
